Test results reported in patent US4468511A, “C-20- And C-23-Modified macrolide derivatives” (Eli Lilly and Company, priority 1983, dated 1984).
In brackets after ≈: the same amount, converted by molar mass. Read-outs that look alike come from different tables or passages of the source.

How the values were obtained:
[1] = system: Escherichia coli EC14; assay: MIC, standard agar-dilution assay; type: cell-based; settings: agar-dilution; Escherichia coli EC14; read-out: MIC
Experimental: (§1) Certain of the derivatives are active against some gram-negative bacteria, such as Pasteurella species. The MIC's in Table II were determined by standard agar-dilution assays. The MIC's in Table III were obtained using a conventional broth-dilution microtiter test.

[2] = system: Escherichia coli TEM; assay: MIC, standard agar-dilution assay; type: cell-based; settings: agar-dilution; Escherichia coli TEM; read-out: MIC
How it was run: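 Minimum inhibitory concentrations against Escherichia coli were measured with a standard agar-dilution method. The result for each derivative is the lowest concentration that inhibits bacterial growth, given in ug/mL.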

[3] = system: Klebsiella pneumoniae KAE; assay: MIC, standard agar-dilution assay; type: cell-based; settings: agar-dilution; Klebsiella pneumoniae KAE; read-out: MIC
How it was run: (§2)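 Broth microdilution MICs cover P. hemolytica, P. multocida and M. gallisepticum. The agar-dilution MIC covers K. pneumoniae only.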

[4] = system: Klebsiella pneumoniae X26; assay: MIC, standard agar-dilution assay; type: cell-based
How it was run: as §2

[5] = system: Staphylococcus aureus V41; assay: MIC, standard agar-dilution assay; type: cell-based; settings: Staphylococcus aureus, V41
Experimental: as §1

[6] = system: Staphylococcus aureus X1.1; assay: MIC, standard agar-dilution assay; type: cell-based; settings: Staphylococcus aureus, X1.1
How it was run: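 Minimum inhibitory concentration against Staphylococcus aureus strain X1.1 was measured with a standard agar-dilution method. The result is reported as the MIC in ug/mL, i.e. the lowest compound concentration in agar that prevents visible growth of this organism.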

[7] = system: Streptococcus Group D X66; assay: MIC, standard agar-dilution assay; type: cell-based; settings: agar-dilution; Streptococcus Group D X66; read-out: MIC
Experimental: as §1

[8] = system: Streptococcus pneumoniae Park I; assay: MIC, standard agar-dilution assay; type: cell-based; settings: Streptococcus pneumoniae
Experimental: as §1

[9] = system: Streptococcus pyogenes 9960; assay: MIC, standard agar-dilution assay; type: cell-based; settings: agar-dilution, Streptococcus 9960, read-out: MIC
Experimental: as §1

[10] = system: Streptococcus pyogenes C203; assay: MIC, standard agar-dilution assay; type: cell-based
Experimental: as §1

[11] = system: Haemophilus influenzae 76; assay: MIC, standard agar-dilution assay; type: cell-based
Experimental: (§3) The MIC's in Table II were determined by standard agar-dilution assays. The MIC's in Table III were obtained using a conventional broth-dilution microtiter test.

[12] = system: Haemophilus influenzae C.L.; assay: MIC, standard agar-dilution assay; type: cell-based
Experimental: as §3

[13] = system: Staphylococcus aureus X400; assay: MIC, standard agar-dilution assay; type: cell-based; settings: Staphylococcus aureus, X400
Experimental: as §3

[14] = system: Staphylococcus epidermidis EPI2; assay: MIC, standard agar-dilution assay; type: cell-based; settings: Staphylococcus epidermidis, EPI2
Experimental: as §3

[15] = system: Staphylococcus aureus S13E; assay: microbe, parasite or virus in culture; type: cell-based
Experimental: as §3

[16] = system: Staphylococcus epidermidis EPI1; assay: microbe, parasite or virus in culture; type: cell-based
Experimental: as §3

[17] = system: Mycoplasma gallisepticum 34159; assay: MIC, conventional broth-dilution microtiter test; type: cell-based; settings: Mycoplasmoides gallisepticum
How it was run: as §2

[18] = system: Mycoplasma gallisepticum 41313; assay: MIC, conventional broth-dilution microtiter test; type: cell-based; settings: Mycoplasmoides gallisepticum
How it was run: as §2

[19] = system: Mycoplasma gallisepticum; assay: MIC, conventional broth-dilution microtiter test; type: cell-based; settings: Mycoplasmoides gallisepticum
How it was run: as §2

[20] = system: Mycoplasma hyorhinis; assay: MIC, conventional broth-dilution microtiter test; type: cell-based; settings: broth-dilution microtiter; Mycoplasma hyorhinis; read-out: MIC
How it was run: (§4)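 Minimum inhibitory concentrations are determined by conventional broth dilution in microtiter wells for Pasteurella and Mycoplasma isolates. For Klebsiella pneumoniae KAE, the standard agar-dilution assay is used.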

[21] = system: Mycoplasma synoviae; assay: MIC, conventional broth-dilution microtiter test; type: cell-based; settings: Mycoplasmopsis synoviae; broth-dilution microtiter; Mycoplasma synoviae; read-out: MIC
How it was run: as §4

[22] = system: Pasteurella hemolytica 22C; assay: MIC, conventional broth-dilution microtiter test; type: cell-based; settings: broth-dilution microtiter; Pasteurella hemolytica 22C; read-out: MIC
How it was run: as §2

[23] = system: Pasteurella hemolytica 23C; assay: MIC, conventional broth-dilution microtiter test; type: cell-based; settings: broth-dilution microtiter; Pasteurella hemolytica 23C; read-out: MIC
How it was run: as §2

[24] = system: Pasteurella hemolytica 41D; assay: MIC, conventional broth-dilution microtiter test; type: cell-based; settings: broth-dilution microtiter; Pasteurella hemolytica 41D; read-out: MIC
How it was run: as §2

[25] = system: Pasteurella multocida 17E; assay: MIC, conventional broth-dilution microtiter test; type: cell-based; settings: broth-dilution microtiter; Pasteurella multocida 17E, Bovine isolate; read-out: MIC
How it was run: as §2

[26] = system: Pasteurella multocida 22A; assay: MIC, conventional broth-dilution microtiter test; type: cell-based
How it was run: as §2

[27] = system: Pasteurella multocida 40G; assay: MIC, conventional broth-dilution microtiter test; type: cell-based
How it was run: as §2

[28] = system: Pasteurella multocida 60A; assay: MIC, conventional broth-dilution microtiter test; type: cell-based; settings: broth-dilution microtiter; Pasteurella multocida 60A, Avian isolate; read-out: MIC
How it was run: as §2

[29] = system: Pasteurella multocida 68C; assay: MIC, conventional broth-dilution microtiter test; type: cell-based
How it was run: as §2

[30] = system: Staphylococcus aureus; assay: MIC, conventional broth-dilution microtiter test; type: cell-based; settings: broth-dilution microtiter, read-out: MIC
Experimental: as §1

[31] = system: Streptococcus sp. 80; assay: MIC, conventional broth-dilution microtiter test; type: cell-based
Experimental: as §1

[32] = system: Streptococcus pyogenes C203; assay: Protection of mice experimentally infected with S. pyogenes C203; type: in vivo; settings: mg/kg × 2, doses given 1 and 4 hours postinfection
Experimental: Some of the derivatives of this invention have shown in vivo antimicrobial activity against experimentally-induced infections in laboratory animals. When two doses of test compound were administered to mice experimentally infected with S. pyogenes C203, the activity observed was measured as an ED50 value [effective dose in mg/kg to protect 50% of the test animals: see Warren Wick, et al., J. Bacteriol. 81, 233-235 (1961)].

CCC1OC(=O)CC(O)C(C)C(OC2OC(C)C(O)C(N(C)C)C2O)C(CCN(C)C)CC(C)C(=O)C=CC(C)=CC1CO (stereo not drawn) [Compound 2, 20-N-Dimethylamino-20-deoxy-20-dihydro-OMT]
MIC [1]: > 128 µg/mL
MIC [2]: 128 µg/mL (≈ 204 µM)
MIC [3]: > 128 µg/mL
MIC ([4]; agar-dilution, Klebsiella pneumoniae X26, read-out: MIC): 16 µg/mL (≈ 25.5 µM)
MIC [5]: 32 µg/mL (≈ 51.1 µM)
MIC [6]: 32 µg/mL (≈ 51.1 µM)
MIC [7]: > 128 µg/mL
MIC [8]: 32 µg/mL (≈ 51.1 µM)
MIC [9]: > 128 µg/mL
MIC ([10]; Streptococcus pyogenes, C203): 32 µg/mL (≈ 51.1 µM)
MIC ([11]; Haemophilus influenzae, 76): 32 µg/mL (≈ 51.1 µM)
MIC ([12]; agar-dilution, Haemophilus influenzae C.L., Ampicillin-sensitive strain, read-out: MIC): 16 µg/mL (≈ 25.5 µM)
MIC [13]: 64 µg/mL (≈ 102 µM)
MIC [14]: 64 µg/mL (≈ 102 µM)
MIC [15]: 32 µg/mL (≈ 51.1 µM)
MIC ([16]; agar-dilution, Staphylococcus epidermidis EPI1, read-out: MIC): 16 µg/mL (≈ 25.5 µM)
MIC ([17]; broth-dilution microtiter, Mycoplasma gallisepticum 34159, Resistant strain, read-out: MIC): > 50 µg/mL
MIC ([18]; broth-dilution microtiter, Mycoplasma gallisepticum 41313, Resistant strain, read-out: MIC): 50 µg/mL (≈ 79.8 µM)
MIC ([19]; broth-dilution microtiter, Mycoplasma gallisepticum, read-out: MIC): 50 µg/mL (≈ 79.8 µM)
MIC [20]: 50 µg/mL (≈ 79.8 µM)
MIC [21]: > 50 µg/mL
MIC [22]: 50 µg/mL (≈ 79.8 µM)
MIC [23]: 50 µg/mL (≈ 79.8 µM)
MIC [24]: 50 µg/mL (≈ 79.8 µM)
MIC [25]: 25 µg/mL (≈ 39.9 µM)
MIC ([26]; broth-dilution microtiter, Pasteurella multocida 22A, read-out: MIC): 25 µg/mL (≈ 39.9 µM)
MIC ([27]; broth-dilution microtiter, Pasteurella multocida 40G, read-out: MIC): 50 µg/mL (≈ 79.8 µM)
MIC [28]: 25 µg/mL (≈ 39.9 µM)
MIC ([29]; broth-dilution microtiter, Pasteurella multocida 68C, read-out: MIC): 12.5 µg/mL (≈ 19.9 µM)
MIC [30]: 50 µg/mL (≈ 79.8 µM)
MIC ([31]; broth-dilution microtiter, Streptococcus sp. 80, read-out: MIC): 25 µg/mL (≈ 39.9 µM)

CCC1CC(C)C(=O)C=CC(C)=CC(COc2cccc(OC)c2OC)C(CC)OC(=O)CC(O)C(C)C1OC1OC(C)C(O)C(N(C)C)C1O (stereo not drawn) [Compound 47, 23-O-(2,3-Dimethoxyphenyl)-20-deoxy-20-dihydro-OMT]
MIC [1]: > 128 µg/mL
MIC [2]: 128 µg/mL (≈ 178 µM)
MIC [3]: > 128 µg/mL
MIC ([4]; Klebsiella pneumoniae, X26): 4 µg/mL (≈ 5.56 µM)
MIC [5]: 0.25 µg/mL (≈ 0.347 µM)
MIC [6]: 0.25 µg/mL (≈ 0.347 µM)
MIC [7]: 0.25 µg/mL (≈ 0.347 µM)
MIC [9]: 0.25 µg/mL (≈ 0.347 µM)
MIC ([10]; agar-dilution, Streptococcus pyogenes C203, read-out: MIC): 0.25 µg/mL (≈ 0.347 µM)
MIC ([11]; agar-dilution, Haemophilus influenzae 76, Ampicillin-resistant strain, read-out: MIC): 16 µg/mL (≈ 22.2 µM)
MIC ([12]; Haemophilus influenzae): 32 µg/mL (≈ 44.4 µM)
MIC [13]: 0.25 µg/mL (≈ 0.347 µM)
MIC [14]: 0.25 µg/mL (≈ 0.347 µM)
MIC [15]: 0.25 µg/mL (≈ 0.347 µM)
MIC ([16]; Staphylococcus epidermidis, EPI1): 0.25 µg/mL (≈ 0.347 µM)
MIC [17]; 34159: 50 µg/mL (≈ 69.5 µM)
MIC [18]; 41313: 50 µg/mL (≈ 69.5 µM)
MIC [19]: 1.56 µg/mL (≈ 2.17 µM)
MIC [20]: 25 µg/mL (≈ 34.7 µM)
MIC [21]: 6.25 µg/mL (≈ 8.68 µM)
MIC [22]: 25 µg/mL (≈ 34.7 µM)
MIC [23]: 25 µg/mL (≈ 34.7 µM)
MIC [24]: 25 µg/mL (≈ 34.7 µM)
MIC [25]: 25 µg/mL (≈ 34.7 µM)
MIC ([26]; Pasteurella multocida, 22A): 50 µg/mL (≈ 69.5 µM)
MIC ([27]; Pasteurella multocida, 40G): 12.5 µg/mL (≈ 17.4 µM)
MIC [28]: 25 µg/mL (≈ 34.7 µM)
MIC ([29]; Pasteurella multocida, 68C): 12.5 µg/mL (≈ 17.4 µM)
MIC [30]: 3.12 µg/mL (≈ 4.33 µM)
MIC ([31]; Streptococcus, SP.80): 1.56 µg/mL (≈ 2.17 µM)
ED50 ([32]; C203, mice, oral, read-out: ED50 Oral): > 50 mg/kg
ED50 ([32]; C203, sc, mice, subcutaneous, read-out: ED50 Subcutaneous): > 10 mg/kg
